Legend:
[1] = biological target: zHDAC6-CD2 wt (Danio rerio (Zebrafish) (Brachydanio rerio), UniProt F8W4B7); assay: Isolation of long-lived/tight complex (spin column chromatography with LC-HRMS); format: binding; conditions: zHDAC6-CD2 wt 1 μM, compound 5 μM, 6 hours, Bio-Spin P-6
Protocol: Rapid chromatography on spin columns coupled to LC-HRMS was used to attempt the isolation of long-lived/tight complexes between HDAC6 and examples 1 and 1-A. zHDAC6-CD2 wt (1 μM) was incubated with 1 (5 μM) or 1-A (also 5 μM) as described before for 6 hours. An aliquot (60 μL) was loaded on a Bio-Spin P-6 Gel Column (Bio-Rad) that had been equilibrated with assay buffer in order to separate the HDAC6-inhibitors complexes from free compounds. After centrifugation to elute the initial fraction containing most of the enzyme, ten 200 μL aliquots were applied and eluted by centrifugation to collect the low molecular weight (free) compounds. Aliquots of the fractions were subjected to LC-HRMS analysis (as described above) for identification and quantitation of 1 and its derivatives.

[2] = biological target: recombinant human HDAC6 (Homo sapiens (Human), UniProt Q9UBN7); assay: Enzyme inhibitory activity assay on HDAC6; format: biochemical; conditions: 30 minutes preincubation at 25° C.
Protocol: (§1) For each test compound, 100× concentrated DMSO solutions at 8 doses were prepared and then diluted in assay buffer (25 mM Tris-HCl, pH 8, 130 mM NaCl, 0.05% Tween-20, 10% Glycerol) to obtain 5× concentrated solutions in relation to the final concentrations (typical final concentration range—6.4-200000 nM or 0.18-50000 nM, final DMSO content—1%). Then 10 μL solution of each test compound concentration were placed on a 96-well plate in triplicate and 15 μL of 3.33× concentrated enzyme solution in the assay buffer containing 3.33× concentrated BSA (final BSA concentration 1 mg/mL) and, in case of HDAC6, 3.33× concentrated TCEP (final TCEP concentration—200 μM) were added to each well. After a period of preincubation at 25° C. (30 minutes for HDAC6 and 120 minutes for HDAC1), 25 μL of solution containing the substrate were added. As substrate, FLUOR DE LYS® deacetylase substrate (Enzo Life Sciences, cat: BML-KI104, FdL), FLUOR DE LYS®-Green substrate (Enzo Life Sciences, cat: BML-KI572, FdL_G) or Boc-Lys(Tfa)-AMC (Bachem, cat: 4060676.005, Tfal)—2× concentrated solution in assay buffer were used. Following a reaction period (30 minutes at 25° C.), 50 μL of the development solution consisting of concentrate FLUOR DE LYS® developer I (Enzo Life Sciences, ca: BML-KI105), diluted 200 times in buffer (50 mM Tris-HCl, pH 8, 137 mM NaCl, 2.7 mM KCl, 1 mM MgCl2) plus 2 μM TSA was added and, after 25 minutes at room temperature in the dark, using the Victor 1420 Multilabel Counter Perkin Elmer Wallac instrument, the fluorescence reading was carried out (excitation/emission: 485/535 nM—Fluor de Lys Green, 355/460 nM—Tfal, Fluor de Lys).
(§2) Enzymatic activity on recombinant human HDAC6 and HDAC1 was evaluated (Table 2) for each synthesized compound.

[3] = biological target: recombinant human HDAC1 (Homo sapiens (Human), UniProt Q13547); assay: Enzyme inhibitory activity assay on HDAC1; format: biochemical; conditions: 120 minutes preincubation at 25° C.
Protocol: as §1, §2

[4] = test system: human B cell precursor leukemia 697; assay: In vitro α-tubulin acetylation in 697 cell line; format: cell-based; conditions: Homo sapiens, B-cell, 16 h; read-out: TubAc 697 cells EC50
Protocol: The in vitro α-tubulin acetylation was evaluated on human B cell precursor leukemia 697.
The 697 cells were maintained in RPMI Medium 1640 (Gibco, cat: 21875-034) supplemented with 10 mM HEPES (Gibco, cat: 15630-080), Pen-Strep (Penicillin 100 U/ml, Streptomycin 100 μg/ml, Gibco, cat: 15140-122) and 10% fetal bovine serum (Gibco, cat: 10270-106).
The cells were plated in 12-well plates (Costar, cat: 3512) at the density of 5.5×10^5 cells/ml.
Serial dilutions of test compounds in DMSO were prepared using 20 mM stock solutions to obtain 8 doses 200× concentrated in respect to final doses (2.7-100000 nM). Then the DMSO solutions were diluted 10× in culture medium to obtain 20× concentrated solutions which were used for cells treatment (125 μl of medium solutions were added to 2.375 ml of cells suspension). The final DMSO content was set as 0.5%. The plates were incubated at 37° C., 5% CO2 for 16 hours.
At the end of the incubation period, the cells were harvested and centrifuged for 5 minutes at 200×g and washed with 0.9% NaCl at 4° C. The resulting pellet was treated for 30 minutes at 4° C. with 100 μl Complete Lysis-M buffer containing protease inhibitors (Complete Lysis-M Roche+Complete Tablets, Mini Easypack, cat: 4719956001) and phosphatase inhibitor cocktails (PhosStop Easypack, Roche, cat: 4906837001) and then centrifuged 10 minutes at 18213×g. The protein concentration in each supernatant was determined using BCA Protein Assay Kit (Pierce, cat: 23227). The samples were diluted in PBS 1× to obtain 2 μg/ml concentration and coated in MaxiSorp 96-well plates (Nunc, cat: 442404). The plates were incubated overnight at room temperature.
Plates were washed twice with Wash Buffer (PBS 1×+0.005% tween 20) and saturated for 1 hour at room temperature with 300 μL of 1×PBS containing 10% FBS. After washing twice with Wash Buffer, the plates were incubated for 2 hours at room temperature in the presence of 100 μl/well either anti-acetylated-α-tubulin antibody (Monoclonal Anti-Tubulin, Acetylated antibody produced in mouse, Sigma-Aldrich, cat: T6793) or total anti-α-tubulin antibody (Monoclonal Anti-α-Tubulin produced in mouse, Sigma-Aldrich, cat: T6074) diluted 1:1000 in 1×PBS containing 10% FBS. Following 5 washing cycles with Wash Buffer the secondary antibody conjugated with the enzyme HRP (Goat anti-Mouse IgG, IgM, IgA (H+L), stock concentration 0.5 mg/ml, Thermo Fisher Scientific, cat: A10668), diluted 1:1000 in 1×PBS+10% FBS was added at the volume of 100 μl/well. After two hours of incubation at room temperature the plates were washed 4 times with Wash Buffer, then 100 μl/well of TMB substrate (TMB substrate kit, Thermo Fisher Scientific, cat: 34021) was added for 10 minutes at room temperature in the dark. The reaction was stopped by adding 50 μl of 2M H2SO4. The plates were read in BioTek Synergy H1 multimode microplate reader at a wavelength of 450 nm.
The measured absorbance was corrected by subtracting the mean of blank values (samples without the primary antibody). The absorbance ratios of acetyl to total tubulin assays were calculated and normalized to the reference compound (positive control) 4 parameter logistic curve, where 0% is the fitted bottom and 100% is the fitted top of the curve. The results are expressed as relative EC50.

[5] = test system: SH-SY5Y cells; assay: In vitro α-tubulin acetylation in undifferentiated SH-SY5Y cells; format: cell-based; conditions: overnight, @1uM
Protocol: SH-SY5Y cells (ATCC, cod. CRL-2266) are plated in optical optimized 96-well black plates (Perkin Elmer, cod. 6055302) at 5000 cells/well in 100 μl/well of growth medium (DMEM/F12 (1:1)+10 mM hepes+100 units/mL of penicillin+100 μg/mL of streptomycin+10% of inactivated Foetal calf serum (FCS, Hyclone)).
After 24 h of seeding, cells are incubated overnight with the selected molecules at 0.1-1-10 μM. ACY1083 and Tubastatin A, at the same doses, are tested as positive controls of α-Tubulin acetylation, while untreated cells are incubated with 0.01% DMSO and indicated as CTRL DMSO.
At the end of the incubation, cells are fixed adding 100 μL/well of formaldehyde 8% in PBS (final formaldehyde concentration 4% in 200 μL/well) directly in the 100 μL/well of medium, for 30 min at RT. The fixing solution is carefully removed, and wells are washed twice with PBS for 10 min each. Fixed cells are kept in PBS at 4° C. until staining.
The day of the staining experiment, the fixed cells are incubated 60 min with the blocking buffer (PBS with 5% FCS+0.3% Triton™ X-100). While blocking, primary antibodies are prepared by diluting 1:200 the α-Tubulin Alexa Fluor 488 Conjugate (Cell Signaling, cod. 5063) antibody and 1:50 Acetyl-α-Tubulin Alexa Fluor 647 Conjugate (Cell Signaling, cod. 81502) antibody in the Antibody Dilution Buffer (PBS with 1% BSA+0.3% Triton™ X-100). Once the blocking solution is aspirated, the diluted primary antibodies are applied and incubated overnight at 4° C. The next day, cells are rinsed twice with PBS (10 min each), incubated 5 min with 300 nM DAPI in PBS, and then rinsed twice with PBS (10 min each). For each treatment, 3 wells are stained.
Images of the stained cells are acquired by means of the IN Cell Analyzer 2500 HS Instrument, using: far red channel for Acetyl-α-Tubulin staining (exposure 0.02 sec), green channel for α-Tubulin staining (exposure 0.02 sec), and blue channel for DAPI (nuclei) staining. For each well, 10 images are acquired.
Images of stained cells are analysed with the InCarta software (Molecular Devices) for obtaining fluorescence intensity considering whole cells. For each treatment, mean values of Cell intensity—Bckg (Cell), for both staining, are obtained using the InCarta raw data by FOV (Field of View). Results are expressed as fold increase of the ratio of acetylated tubulin and total tubulin towards control (CTRL DMSO).

zHDAC6-CD2 wt, sequence (F8W4B7 entry or part of it del 1-439/del 799-1081 limits assumed): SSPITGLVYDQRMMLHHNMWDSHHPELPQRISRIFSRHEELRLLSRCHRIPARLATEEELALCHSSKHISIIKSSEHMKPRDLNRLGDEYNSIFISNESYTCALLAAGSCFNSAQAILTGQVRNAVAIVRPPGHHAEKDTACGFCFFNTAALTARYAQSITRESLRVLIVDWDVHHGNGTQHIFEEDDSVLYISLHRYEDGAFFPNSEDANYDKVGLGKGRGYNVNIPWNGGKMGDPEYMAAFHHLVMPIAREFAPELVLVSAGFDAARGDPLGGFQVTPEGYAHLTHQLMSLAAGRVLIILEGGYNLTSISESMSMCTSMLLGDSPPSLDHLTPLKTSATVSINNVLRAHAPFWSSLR
recombinant human HDAC6, sequence (Q9UBN7 whole entry): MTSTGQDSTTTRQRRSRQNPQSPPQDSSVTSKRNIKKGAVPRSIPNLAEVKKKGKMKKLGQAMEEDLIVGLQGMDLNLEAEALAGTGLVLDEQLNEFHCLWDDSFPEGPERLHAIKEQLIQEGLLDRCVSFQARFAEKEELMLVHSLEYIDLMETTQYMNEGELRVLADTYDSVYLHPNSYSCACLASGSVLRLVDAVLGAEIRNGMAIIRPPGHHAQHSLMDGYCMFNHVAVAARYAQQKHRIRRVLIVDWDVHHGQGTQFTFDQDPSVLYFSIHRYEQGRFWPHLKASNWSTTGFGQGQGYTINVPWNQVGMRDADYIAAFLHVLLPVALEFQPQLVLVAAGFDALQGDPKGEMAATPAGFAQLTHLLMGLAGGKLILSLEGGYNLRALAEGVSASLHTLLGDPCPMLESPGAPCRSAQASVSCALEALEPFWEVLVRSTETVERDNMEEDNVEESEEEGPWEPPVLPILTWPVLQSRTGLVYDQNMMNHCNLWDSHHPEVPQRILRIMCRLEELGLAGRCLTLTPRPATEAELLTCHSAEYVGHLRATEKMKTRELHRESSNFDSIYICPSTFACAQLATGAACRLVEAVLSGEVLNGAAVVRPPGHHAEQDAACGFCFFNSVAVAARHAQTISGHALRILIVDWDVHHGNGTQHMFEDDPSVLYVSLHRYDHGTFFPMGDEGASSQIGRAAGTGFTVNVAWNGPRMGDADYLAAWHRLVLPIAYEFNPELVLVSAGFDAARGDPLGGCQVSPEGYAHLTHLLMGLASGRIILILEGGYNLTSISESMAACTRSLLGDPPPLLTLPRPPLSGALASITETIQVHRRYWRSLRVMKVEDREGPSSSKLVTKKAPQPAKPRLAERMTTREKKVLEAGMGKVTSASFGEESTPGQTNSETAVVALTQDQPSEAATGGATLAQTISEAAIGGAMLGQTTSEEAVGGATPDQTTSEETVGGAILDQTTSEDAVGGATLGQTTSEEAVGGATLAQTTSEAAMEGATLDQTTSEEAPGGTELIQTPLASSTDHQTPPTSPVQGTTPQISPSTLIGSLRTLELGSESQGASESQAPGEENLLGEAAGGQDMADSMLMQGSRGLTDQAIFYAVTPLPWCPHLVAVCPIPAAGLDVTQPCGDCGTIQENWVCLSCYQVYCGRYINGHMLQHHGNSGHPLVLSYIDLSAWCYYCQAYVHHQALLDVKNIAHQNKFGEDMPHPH
recombinant human HDAC1, sequence (Q13547 whole entry): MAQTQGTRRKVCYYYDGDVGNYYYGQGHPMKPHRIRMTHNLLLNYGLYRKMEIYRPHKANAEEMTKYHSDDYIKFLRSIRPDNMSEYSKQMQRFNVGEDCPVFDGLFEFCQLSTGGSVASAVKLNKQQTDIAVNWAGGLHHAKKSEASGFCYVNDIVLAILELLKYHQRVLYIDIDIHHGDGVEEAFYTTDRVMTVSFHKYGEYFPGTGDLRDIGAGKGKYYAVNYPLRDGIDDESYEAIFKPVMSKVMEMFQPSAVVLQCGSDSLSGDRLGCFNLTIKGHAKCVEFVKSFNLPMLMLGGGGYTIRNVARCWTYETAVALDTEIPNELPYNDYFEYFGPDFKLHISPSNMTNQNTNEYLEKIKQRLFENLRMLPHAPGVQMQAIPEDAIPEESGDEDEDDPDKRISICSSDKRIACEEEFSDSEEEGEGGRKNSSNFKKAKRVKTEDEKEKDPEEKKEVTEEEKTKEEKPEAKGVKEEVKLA

| co-elution with the enzyme (fraction 1) [1] | IC50 [2] | IC50 [3] | EC50 [4] | Structure (SMILES) | TubAc SH-SY5Y cells fold increase of the ratio of acetylated tubulin and total tubulin towards control [5] |
| --- | --- | --- | --- | --- | --- |
| co-elutes with the enzyme |  |  |  | O=C(NNC(=O)C(F)F)c1ccc(Cn2cc(-c3ccc(NC4=NCCN4)cc3)nn2)cc1 [Compound 1, N′-(2,2-difluoroacetyl)-4-((4-(4-((4,5-dihydro-1H-imidazol-2-yl)amino)phenyl)-1H-1,2,3-triazol-1-yl)methyl)benzohydrazide] |  |
|  | 14 nM | > 100000 nM | 320 nM | CC(c1ccc(-c2nnc(C(F)F)o2)cn1)n1cc(-c2ccc(N)nc2)nn1 (centres unmarked) [Compound 39-A] | 6.5 fold |
